Experimental data taken from patent US11878063B2, “Engineered ligands and uses thereof” (Children's Medical Center Corporation, priority 2019, dated 2024).

Assays:
[1] = target: T1, rat PTHR1 (Rattus norvegicus, UniProt P25961); experiment: cAMP induction in HEK293 cells stably expressing rat PTHR1; type: cell-based; details: maximal cAMP response, normalized
T1 construct: expressed in transfected cells
T1 sequence (P25961 27-591): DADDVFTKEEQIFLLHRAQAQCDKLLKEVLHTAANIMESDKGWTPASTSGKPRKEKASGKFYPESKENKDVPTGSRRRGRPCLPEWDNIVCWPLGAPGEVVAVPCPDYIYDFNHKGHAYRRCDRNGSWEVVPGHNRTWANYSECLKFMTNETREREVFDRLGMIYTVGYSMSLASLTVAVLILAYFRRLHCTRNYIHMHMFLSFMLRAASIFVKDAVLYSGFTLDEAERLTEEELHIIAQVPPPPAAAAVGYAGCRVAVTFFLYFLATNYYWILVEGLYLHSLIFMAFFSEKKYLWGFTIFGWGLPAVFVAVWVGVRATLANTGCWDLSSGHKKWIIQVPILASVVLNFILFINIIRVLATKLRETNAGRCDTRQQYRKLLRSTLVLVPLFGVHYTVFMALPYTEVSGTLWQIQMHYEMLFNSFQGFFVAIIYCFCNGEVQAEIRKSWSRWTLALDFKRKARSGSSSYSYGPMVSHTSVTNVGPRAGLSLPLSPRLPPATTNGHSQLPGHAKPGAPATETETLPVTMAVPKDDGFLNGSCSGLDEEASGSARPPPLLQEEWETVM
Method: Measurement of cAMP response. These assays were performed as previously described^27. […] Confluent monolayers of cells were pre-incubated with CO2 independent medium containing D-luciferin (0.5 mM) at 37° C. until a stable baseline level of luminescence was established (20 min). Varying concentrations of ligands were then added, and the time course of luminescence response was recorded using BioTek plate reader.
(§1) Data calculations. Data were processed using Microsoft Excel and GraphPad Prism 6. Data from cAMP dose-response assays were analyzed using a sigmoidal dose-response model with variable slope. Data sets were statistically compared by using Student's t test (two-tailed) assuming unequal variances for the two sets.

[2] = target: T2, human PTHR1 (Homo sapiens, UniProt Q03431); experiment: β-arrestin2-YFP recruitment in HEK293 cells transiently transfected with human PTHR1 (microscopy); type: cell-based; details: 30 nM PTH(1-34)-TMR; 100 nM conjugate or VHH; 30 min room temperature
T2 construct: expressed in transfected cells
T2 sequence (Q03431 27-593): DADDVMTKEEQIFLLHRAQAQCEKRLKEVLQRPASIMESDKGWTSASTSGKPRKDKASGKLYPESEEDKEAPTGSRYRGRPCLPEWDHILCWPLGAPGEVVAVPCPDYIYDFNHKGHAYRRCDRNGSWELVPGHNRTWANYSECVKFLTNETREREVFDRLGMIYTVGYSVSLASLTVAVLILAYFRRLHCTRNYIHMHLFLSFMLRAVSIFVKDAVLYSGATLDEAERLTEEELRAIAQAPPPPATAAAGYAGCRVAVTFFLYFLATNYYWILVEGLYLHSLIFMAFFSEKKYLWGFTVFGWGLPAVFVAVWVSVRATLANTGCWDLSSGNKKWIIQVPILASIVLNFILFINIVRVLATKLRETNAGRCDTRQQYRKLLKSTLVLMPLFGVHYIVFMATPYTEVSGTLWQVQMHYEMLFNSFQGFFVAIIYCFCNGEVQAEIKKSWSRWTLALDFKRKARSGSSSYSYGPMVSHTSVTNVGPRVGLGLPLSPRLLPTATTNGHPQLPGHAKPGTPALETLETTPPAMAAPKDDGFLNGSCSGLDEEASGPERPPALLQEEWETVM
Method: FIGS. 30A-30F: Assessment of β-arrestin recruitment. A HEK293-derived cell line stably expressing a β-arrestin2-YFP fusion^2 was transiently transfected with human PTHR1. […] (red) and the nuclei of all cells were counterstained with DAPI. […] Panels show the same field of view with signal for β-arrestin2-YFP. […] (FIG. 30E) The ligands or VHHs (and concentrations) applied to these cells are VHHPTHR (100 nM). (FIG. 30F) The ligands or VHHs (and concentrations) applied to these cells are Vehicle. Transfected cells were incubated with indicated ligands or VHHs at room temperature for 30 minutes. This solution was aspirated, and the cells were washed twice, fixed with paraformaldehyde, and imaged as described in methods. For each panel the bottom image corresponds to an expanded version of the inset marked by the rectangle in the top image.

[3] = system: PTHR1GFP; experiment: cAMP induction in HEK293 cells stably expressing PTHR1GFP; type: cell-based, human
Method: The GFP-PTHR1 fusion was stably expressed in cells that respond to receptor engagement by activation of a cAMP-sensitive version of luciferase. Exposure of these transfectants to PTH(1-11) yielded the expected dose-response curve with half maximal stimulation at ˜200 nM.
Measurement of cAMP response. These assays were performed as previously described^27. Briefly, HEK-293-derived cell lines that stably express the Glosensor cAMP reporter (Promega Corp.)^30 and PTHR1, a PTHR1 variant, or PTHR2 were seeded into white sided 96 well plates (50,000 cells/well) and grown to confluency. Confluent monolayers of cells were pre-incubated with CO2 independent medium containing D-luciferin (0.5 mM) at 37° C. until a stable baseline level of luminescence was established (20 min). Varying concentrations of ligands were then added, and the time course of luminescence response was recorded using BioTek plate reader. The maximal luminescence response (observed 12-16 min after ligand addition) was used to construct dose-response data sets (Table 4, FIGS. 22A to 22E).
as §1
While there is no structural information for any VHH bound to PTHR1, a mode of interaction was envisioned between the receptor and VHH-PTH conjugates like that depicted in FIG. 12—Panel c. The portion of PTHR1 encoded by exon 2 is not resolved in structural studies (FIG. 12—Panel d)^13, 14, 17, is not important for ligand binding^18, and in past work has been targeted as a site for receptor modification^18, 19. A construct was generated that encodes a PTHR1 variant in which a 14-residue fragment from exon 2 was replaced with a 14-mer epitope tag from the intracellular protein UBC6e (PTHR16E, FIG. 12—Panel d)^20. A receptor construct in which a pH-sensitive green fluorescent protein variant (GFP) was inserted into the portion of the receptor encoded by exon 2 (PTHR1GFP in FIGS. 17A to 17C)^19. Another version of PTHR1 in which yellow fluorescent protein (YFP) replaces the entire extracellular domain (PTHR1YFPΔECD, FIG. 12—Panel e)^21, was also used.

CC[C@H](C)[C@H](NC(=O)[C@H](CCC(=O)O)NC(=O)[C@H](CO)NC(=O)[C@@H](NC(=O)[C@@H](N)CO)C(C)C)C(=O)N[C@@H](CCC(N)=O)C(=O)N[C@@H](CC(C)C)C(=O)N[C@@H](CCSC)C(=O)N[C@@H](Cc1cnc[nH]1)C(=O)N[C@@H](CC(N)=O)C(=O)N[C@@H](CC(C)C)C(=O)NCC(=O)N[C@@H](CCCCN)C(=O)N[C@@H](Cc1cnc[nH]1)C(=O)N[C@@H](CC(C)C)C(=O)N[C@@H](CC(N)=O)C(=O)N[C@@H](CO)C(=O)N[C@@H](CCSC)C(=O)N[C@@H](CCC(=O)O)C(=O)N[C@@H](CCCN=C(N)N)C(=O)N[C@H](C(=O)N[C@@H](CCC(=O)O)C(=O)N[C@@H](Cc1c[nH]c2ccccc12)C(=O)N[C@@H](CC(C)C)C(=O)N[C@@H](CCCN=C(N)N)C(=O)N[C@@H](CCCCN)C(=O)N[C@@H](CCCCN)C(=O)N[C@@H](CC(C)C)C(=O)N[C@@H](CCC(N)=O)C(=O)N[C@@H](CC(=O)O)C(=O)N[C@H](C(=O)N[C@@H](Cc1cnc[nH]1)C(=O)N[C@@H](CC(N)=O)C(=O)N[C@@H](Cc1ccccc1)C(=O)O)C(C)C)C(C)C [PTH(1-34)]
Max (normalized ± SD), rPTHR1 [1]: 1.00 ± 0.00 | relocalization of YFP-tagged β-arrestin to puncta [2]: effectively stimulated | Max (normalized ± SD), hPTHR1GFP ([3]; maximal cAMP response, normalized): 1.00 ± 0.00 | EC50 ([3]; mean ± SD, Inactive = response <5% of maximal, read-out: EC50, cAMP induction, hPTHR1GFP): 0.4 ± 0.8 nM
